PMC6857076 (Pharmacology Research & Perspectives, 2019)

System: JAK-dependent cytokine receptors
Test: Integrated modeling: calculated cytokine receptor inhibitory concentrations (ICxx)
Set-up: species or system human
Conditions: calculated ICxx at clinically meaningful doses, Figure 1
Description: An integrated modeling approach was applied to determine cytokine receptor inhibition profiles. Whole blood IC50 values were converted to unbound values (IC50,u) using measured blood‐to‐plasma ratios and measured fu values, as shown in Equation 2:(2) IC50,u=IC50/blood:plasma ratio×fu

CC[C@@H]1CN(C(=O)NCC(F)(F)F)C[C@@H]1c1cnc2cnc3[nH]ccc3n12 [Upadacitinib]
Inhibition (ICxx) of JAK1/JAK2-mediated (IFNγ, G-CSF) and JAK2-mediated (TPO, IL-3, GM-CSF) cytokine receptors vs other JAK inhibitors: numerically greater
